Patent US20230279025A1, “KRAS G12D INHIBITORS” (Mirati Therapeutics, Inc., priority 2020, published 2023)
pIC50, pKd: −log10 of the molar value. Structures can show the parent of a compound that is named as a salt.

Columns and labels:
KRas G12D [1] = target: T1, KRas G12D (Homo sapiens (Human), UniProt P01116, G12D); test: KRas G12D Surface Plasmon Resonance (SPR) Binding Assay; details: Biacore T200, immobilized biotinylated KRAS protein, 1:1 binding model
Target sequence in this assay (P01116-2 other isoform, or with tags, fused parts or gaps G12D): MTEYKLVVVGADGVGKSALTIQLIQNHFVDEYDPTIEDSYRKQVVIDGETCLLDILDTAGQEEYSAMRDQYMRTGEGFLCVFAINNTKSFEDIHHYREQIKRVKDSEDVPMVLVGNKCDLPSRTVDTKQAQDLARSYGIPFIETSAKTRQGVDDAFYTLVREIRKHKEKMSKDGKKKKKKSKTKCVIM

KRas G12D [2] = target: T1, KRas G12D; test: KRas G12D Binding Assay (TR-FRET displacement of Cy5 labelled tracer); details: GDP-loaded KRAS G12D (amino acids 1:169), 60 minute incubation at 22° C.
Experimental: After a 60 minute incubation at 22° C., the reaction was measured using a PerkinElmer EnVision multimode plate reader via TR-FRET dual wavelength detection, and the percent of control (POC) calculated using a ratiometric emission factor. […] The POC values were fit to a 4-parameter logistic curve and the IC50 value was determined as the concentration where the curve crosses 50 POC.
ND stands for “not determined.”
Target sequence in this assay (P01116 other isoform, or with tags, fused parts or gaps G12D): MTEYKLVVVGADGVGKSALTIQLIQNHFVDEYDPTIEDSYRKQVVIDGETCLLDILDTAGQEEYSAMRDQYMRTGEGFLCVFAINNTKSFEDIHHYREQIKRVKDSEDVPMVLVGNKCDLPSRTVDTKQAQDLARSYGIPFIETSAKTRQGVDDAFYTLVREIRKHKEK

| Structure (SMILES) | pKd (KRas G12D [1]) | pIC50 (KRas G12D [2]) |
| --- | --- | --- |
| CC(=O)N1CCC(Oc2nc(N3C[C@H]4CC[C@@H](C3)N4)c3cnc(-c4cc(O)cc5ccccc45)c(F)c3n2)CC1 [Example 78, 1-(4-((4-((1R,5S)-3,8-diazabicyclo[3.2.1]octan-3-yl)-8-fluoro-7-(3-hydroxynaphthalen-1-yl)pyrido[4,3-d]pyrimidin-2-yl)oxy)piperidin-1-yl)ethan-1-one] | 6.43 | 6.45 |
| CC1CCc2cccc(-c3ncc4c(N5CC6CCC(C5)N6)nc(OC[C@@H]5CCCN5C)nc4c3F)c21 (stereo partly drawn) [Example 174, 4-((1R,5S)-3,8-diazabicyclo[3.2.1]octan-3-yl)-8-fluoro-7-(3-methyl-2,3-dihydro-1H-inden-4-yl)-2-(((S)-1-methylpyrrolidin-2-yl)methoxy)pyrido[4,3-d]pyrimidine] | 6.73 | 7.19 |
| OC[C@H](O)COc1nc(N2C[C@H]3CC[C@@H](C2)N3)c2cnc(-c3cccc4cccc(Cl)c34)c(F)c2n1 [Example 55, (S)-3-((4-((1R,5S)-3,8-diazabicyclo[3.2.1]octan-3-yl)-7-(8-chloronaphthalen-1-yl)-8-fluoropyrido[4,3-d]pyrimidin-2-yl)oxy)propane-1,2-diol] | 4.65 | 5.21 |
| CC(C)Cn1ccnc1CCOc1nc(N2C[C@H]3CC[C@@H](C2)N3)c2cnc(-c3cc(O)cc4ccccc34)c(F)c2n1 [Example 85, 4-(4-((1R,5S)-3,8-diazabicyclo[3.2.1]octan-3-yl)-8-fluoro-2-(2-(1-isobutyl-1H-imidazol-2-yl)ethoxy)pyrido[4,3-d]pyrimidin-7-yl)naphthalen-2-ol] | 6.83 | 6.34 |
| Fc1c(-c2cccc3cccc(Cl)c23)ncc2c(N3C[C@H]4CC[C@@H](C3)N4)nc(OC3CCc4[nH]ncc4C3)nc12 (stereo partly drawn) [Example 142, 4-((1R,5S)-3,8-diazabicyclo[3.2.1]octan-3-yl)-7-(8-chloronaphthalen-1-yl)-8-fluoro-2-((4,5,6,7-tetrahydro-1H-indazol-5-yl)oxy)pyrido[4,3-d]pyrimidine] | 4.86 | 5.05 |
| Oc1cc(-c2ncc3c(N4C[C@H]5CC[C@@H](C4)N5)nc(OCCc4cccnc4)nc3c2F)c2ccccc2c1 [Example 106, 4-(4-((1R,5S)-3,8-diazabicyclo[3.2.1]octan-3-yl)-8-fluoro-2-(2-(pyridin-3-yl)ethoxy)pyrido[4,3-d]pyrimidin-7-yl)naphthalen-2-ol] | 7.27 | 6.81 |
| CO[C@@H]1C[C@@H](COc2nc(N3C[C@H]4CC[C@@H](C3)N4)c3cnc(-c4cc(O)cc5ccccc45)c(F)c3n2)N(C)C1 [Example 42, 4-(4-((1R,5S)-3,8-diazabicyclo[3.2.1]octan-3-yl)-8-fluoro-2-(((2S,4R)-4-methoxy-1-methylpyrrolidin-2-yl)methoxy)pyrido[4,3-d]pyrimidin-7-yl)naphthalen-2-ol] | 8.25 | 8.51 |
| Cc1cccc2cccc(-c3ncc4c(N5C[C@H]6CC[C@@H](C5)N6)nc(OCCc5nccn5C)nc4c3F)c12 [Example 100, 4-((1R,5S)-3,8-diazabicyclo[3.2.1]octan-3-yl)-8-fluoro-2-(2-(1-methyl-1H-imidazol-2-yl)ethoxy)-7-(8-methylnaphthalen-1-yl)pyrido[4,3-d]pyrimidine] | 5.96 | 5.71 |
| CN(C)CCOc1nc(N2C[C@H]3CC[C@@H](C2)N3)c2cnc(-c3cccc4cccc(Cl)c34)c(F)c2n1 [Example 107, 2-((4-((I R,5S)-3,8-diazabicyclo[3.2.1]octan-3-yl)-7-(8-chloronaphthalen-1-yl)-8-fluoropyrido[4,3-d]pyrimidin-2-yl)oxy)-N,N-dimethylethan-1-amine] | 5.84 | 5.67 |
| C[C@H](CN(C)C)Oc1nc(N2C[C@H]3CC[C@@H](C2)N3)c2cnc(-c3cc(O)cc4ccccc34)c(F)c2n1 [Example 17, 4-(4-((1R,5S)-3,8-diazabicyclo[3.2.1]octan-3-yl)-2-(((R)-1-(dimethylamino)propan-2-yl)oxy)-8-fluoropyrido[4,3-d]pyrimidin-7-yl)naphthalen-2-ol] | 5.66 | 6.18 |
| CO[C@@H]1C[C@@H]2CN(c3nc(OC[C@@]45CCCN4C[C@H](F)C5)nc4c(F)c(-c5cccc6cccc(Cl)c56)ncc34)C[C@H]1N2 [Example 397, 7-(8-chloronaphthalen-1-yl)-8-fluoro-2-((2-fluorotetrahydro-1H-pyrrolizin-7a(5H)-yl)methoxy)-4-((1R,5R,6R)-6-methoxy-3,8-diazabicyclo[3.2.1]octan-3-yl)pyrido[4,3-d]pyrimidine] | 6.74 | 6.05 |
| Oc1cc(-c2ncc3c(N4C[C@H]5CC[C@@H](C4)N5)nc(N4CCC4)nc3c2F)c2ccccc2c1 [Example 119, 4-(2-(azetidin-1-yl)-4-((1R,5S)-3,8-diazabicyclo[3.2.1]octan-3-yl)-8-fluoropyrido[4,3-d]pyrimidin-7-yl)naphthalen-2-ol 2,2,2-trifluoroacetate] | 6.29 | 6.16 |
| CCOC(=O)CCCOc1nc(N2C[C@H]3CC[C@@H](C2)N3)c2cnc(-c3cccc4cccc(Cl)c34)c(F)c2n1 [Example 319, Ethyl 4-((4-((1R,5S)-3,8-diazabicyclo[3.2.1]octan-3-yl)-7-(8-chloronaphthalen-1-yl)-8-fluoropyrido[4,3-d]pyrimidin-2-yl)oxy)butanoate] | 3.59 | < 5.00 |
| CN1CCC[C@H]1COc1nc(N2C[C@H]3CC[C@@H](C2)N3)c2cnc(-c3cc(O)cc4ccccc34)cc2n1 [Example 1, 4-(4-((1R,5S)-3,8-diazabicyclo[3.2.1]octan-3-yl)-2-(((S)-1-methylpyrrolidin-2-yl)methoxy)pyrido[4,3-d]pyrimidin-7-yl)naphthalen-2-ol tris-hydrochloride salt] | 7.01 | 6.90 |
| Cn1ccnc1CCOc1nc(N2C[C@H]3CC[C@@H](C2)N3)c2cnc(-c3cccc4ccc(F)cc34)c(F)c2n1 [Example 112, 4-((1R,5S)-3,8-diazabicyclo[3.2.1]octan-3-yl)-8-fluoro-7-(7-fluoronaphthalen-1-yl)-2-(2-(1-methyl-1H-imidazol-2-yl)ethoxy)pyrido[4,3-d]pyrimidine] | 6.01 | 6.14 |
| COCCCN1CCC(Oc2nc(N3C[C@H]4CC[C@@H](C3)N4)c3cnc(-c4cc(O)cc5ccccc45)c(F)c3n2)CC1 [Example 41, 4-(4-((1R,5S)-3,8-diazabicyclo[3.2.1]octan-3-yl)-8-fluoro-2-((1-(3-methoxypropyl)piperidin-4-yl)oxy)pyrido[4,3-d]pyrimidin-7-yl)naphthalen-2-ol] | 6.74 | 7.12 |
| Oc1cc(-c2ncc3c(N4C[C@H]5CC[C@@H](C4)N5)nc(OC4CCOCC4)nc3c2F)c2ccccc2c1 [Example 72, 4-(4-((1R,5S)-3,8-diazabicyclo[3.2.1]octan-3-yl)-8-fluoro-2-((tetrahydro-2H-pyran-4-yl)oxy)pyrido[4,3-d]pyrimidin-7-yl)naphthalen-2-ol] | 6.29 | 6.29 |
| OCCOc1nc(N2C[C@H]3CC[C@@H](C2)N3)c2cnc(-c3cc(O)cc4ccccc34)c(F)c2n1 [Example 69, 4-(4-((1R,5S)-3,8-diazabicyclo[3.2.1]octan-3-yl)-8-fluoro-2-(2-hydroxyethoxy)pyrido[4,3-d]pyrimidin-7-yl)naphthalen-2-ol] | 6.28 | 6.28 |
